Holding throughout (test): biochemical
Holding throughout (set-up): DiscoverX KinomeScan competition binding assay across human kinases; per cent of control at 10 and 100 uM

For one test, the target named is MET(Y1235D) (Homo sapiens, UniProt P08581, Y1235D). The following applies: competition binding, % of control; read-out: Percent Control (100 uM Levosimendan). Summed up: (§1)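 Binding is expressed as %control, normalised between positive and negative control signals. The compound (levosimendan) was tested at 10 μM and 100 μM in the DiscoverX KinomeScan competition binding format against human kinases.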

A further test concerns the target SNRK (Homo sapiens, UniProt Q9NRH2). The following applies: competition binding, % of control; read-out: Percent Control (100 uM Levosimendan). The essentials: as §1
A further test addresses AKT1 (Homo sapiens, UniProt P31749). The following applies: competition binding, % of control; read-out: Percent Control (100 uM Levosimendan). The essentials: as §1
In a further test the target is T1, IKK-beta (Homo sapiens, UniProt O14920).
T1 construct: gene IKBKB
The following applies: competition binding, % of control; read-out: Percent Control (100 uM Levosimendan). Summed up: as §1

The target of the next test is LRRK2 (Homo sapiens, UniProt Q5S007). The following applies: competition binding, % of control; read-out: Percent Control (100 uM Levosimendan). The essentials: as §1
In the next test the target is ERBB2 (Homo sapiens, UniProt P04626). The following applies: competition binding, % of control; read-out: Percent Control (100 uM Levosimendan). Summed up:
as §1

The target of the next test is T2, MLK1 (Homo sapiens, UniProt P80192).
T2 construct: gene MAP3K9
The following applies: competition binding, % of control; read-out: Percent Control (100 uM Levosimendan). The essentials: as §1

The target of test [1] is T3, RPS6KA4(Kin.Dom.1-N-terminal) (Homo sapiens, UniProt O75676).
T3 construct: Kin.Dom.1-N-terminal
The following applies: competition binding, % of control; read-out: Percent Control (100 uM Levosimendan). Summed up: as §1

The next test deals with PIK3CA(Q546K) (Homo sapiens, UniProt P42336, Q546K). The following applies: competition binding, % of control; read-out: Percent Control (100 uM Levosimendan). The essentials:
as §1

For the next test, the target named is CSNK2A2 (Homo sapiens, UniProt P19784). The following applies: competition binding, % of control; read-out: Percent Control (100 uM Levosimendan). The essentials:
as §1

For a further test, the target named is T4, LKB1 (Homo sapiens, UniProt Q15831).
T4 construct: gene STK11
The following applies: competition binding, % of control; read-out: Percent Control (100 uM Levosimendan). Summed up: as §1

In another test the target is FGFR3 (Homo sapiens, UniProt P22607). The following applies: competition binding, % of control; read-out: Percent Control (100 uM Levosimendan). Summed up: as §1
The target in another test is MARK4 (Homo sapiens, UniProt Q96L34). The following applies: competition binding, % of control; read-out: Percent Control (100 uM Levosimendan). The essentials:
as §1

The next test addresses T5, TRKC (Homo sapiens, UniProt Q16288).
T5 construct: gene NTRK3
The following applies: competition binding, % of control; read-out: Percent Control (100 uM Levosimendan). Summed up:
as §1

In a further test the target is CDKL2 (Homo sapiens, UniProt Q92772). The following applies: competition binding, % of control; read-out: Percent Control (100 uM Levosimendan). Summed up: as §1
The next test has as its target CAMK2G (Homo sapiens, UniProt Q13555). The following applies: competition binding, % of control; read-out: Percent Control (100 uM Levosimendan). The essentials: as §1
For another test, the target named is RIOK1 (Homo sapiens, UniProt Q9BRS2). The following applies: competition binding, % of control. Summed up: as §1
The target in the next test is CSF1R (Homo sapiens, UniProt P07333). The following applies: competition binding, % of control. Summed up:
as §1

A further test has as its target T6, PIP5K2B (Homo sapiens, UniProt P78356).
T6 construct: gene PIP4K2B
The following applies: competition binding, % of control. The essentials:
as §1

Where [2] appears, read: read-out: Percent Control (10 uM Levosimendan).
[3] abbreviates: read-out: Percent Control (100 uM Levosimendan).

The values below come from paper PMC6576746, “Rational discovery of dual-indication multi-target PDE/Kinase inhibitor for precision anti-cancer therapy using structural systems pharmacology” (PLoS Computational Biology, 2019).

RIOK1, sequence (Q9BRS2 whole entry): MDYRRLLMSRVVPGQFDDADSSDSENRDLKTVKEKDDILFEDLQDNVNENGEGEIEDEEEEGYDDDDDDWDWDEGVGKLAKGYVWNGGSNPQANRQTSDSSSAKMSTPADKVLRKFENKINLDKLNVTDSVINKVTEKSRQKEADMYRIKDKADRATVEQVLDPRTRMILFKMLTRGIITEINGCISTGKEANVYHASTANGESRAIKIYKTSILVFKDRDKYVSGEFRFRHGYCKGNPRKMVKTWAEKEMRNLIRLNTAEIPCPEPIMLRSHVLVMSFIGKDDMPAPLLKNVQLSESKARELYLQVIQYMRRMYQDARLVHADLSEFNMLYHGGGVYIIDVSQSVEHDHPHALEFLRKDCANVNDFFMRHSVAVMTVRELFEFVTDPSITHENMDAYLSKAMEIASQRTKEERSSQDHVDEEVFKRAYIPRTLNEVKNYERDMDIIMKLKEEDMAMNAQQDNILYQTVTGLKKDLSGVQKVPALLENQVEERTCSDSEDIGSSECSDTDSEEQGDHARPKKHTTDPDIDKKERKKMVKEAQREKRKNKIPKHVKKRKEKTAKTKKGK
T6 sequence (P78356 whole entry): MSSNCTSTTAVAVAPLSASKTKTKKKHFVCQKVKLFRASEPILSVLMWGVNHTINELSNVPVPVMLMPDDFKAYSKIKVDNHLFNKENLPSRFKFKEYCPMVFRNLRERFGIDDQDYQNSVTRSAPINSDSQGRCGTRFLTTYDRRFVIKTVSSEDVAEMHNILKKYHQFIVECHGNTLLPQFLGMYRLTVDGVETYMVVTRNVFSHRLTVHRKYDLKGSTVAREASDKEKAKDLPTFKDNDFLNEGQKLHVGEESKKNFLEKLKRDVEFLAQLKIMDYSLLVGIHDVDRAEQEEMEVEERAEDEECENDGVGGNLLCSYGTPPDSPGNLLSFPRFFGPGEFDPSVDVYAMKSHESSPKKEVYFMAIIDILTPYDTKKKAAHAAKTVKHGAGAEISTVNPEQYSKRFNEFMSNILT
CSF1R, sequence (P07333 whole entry): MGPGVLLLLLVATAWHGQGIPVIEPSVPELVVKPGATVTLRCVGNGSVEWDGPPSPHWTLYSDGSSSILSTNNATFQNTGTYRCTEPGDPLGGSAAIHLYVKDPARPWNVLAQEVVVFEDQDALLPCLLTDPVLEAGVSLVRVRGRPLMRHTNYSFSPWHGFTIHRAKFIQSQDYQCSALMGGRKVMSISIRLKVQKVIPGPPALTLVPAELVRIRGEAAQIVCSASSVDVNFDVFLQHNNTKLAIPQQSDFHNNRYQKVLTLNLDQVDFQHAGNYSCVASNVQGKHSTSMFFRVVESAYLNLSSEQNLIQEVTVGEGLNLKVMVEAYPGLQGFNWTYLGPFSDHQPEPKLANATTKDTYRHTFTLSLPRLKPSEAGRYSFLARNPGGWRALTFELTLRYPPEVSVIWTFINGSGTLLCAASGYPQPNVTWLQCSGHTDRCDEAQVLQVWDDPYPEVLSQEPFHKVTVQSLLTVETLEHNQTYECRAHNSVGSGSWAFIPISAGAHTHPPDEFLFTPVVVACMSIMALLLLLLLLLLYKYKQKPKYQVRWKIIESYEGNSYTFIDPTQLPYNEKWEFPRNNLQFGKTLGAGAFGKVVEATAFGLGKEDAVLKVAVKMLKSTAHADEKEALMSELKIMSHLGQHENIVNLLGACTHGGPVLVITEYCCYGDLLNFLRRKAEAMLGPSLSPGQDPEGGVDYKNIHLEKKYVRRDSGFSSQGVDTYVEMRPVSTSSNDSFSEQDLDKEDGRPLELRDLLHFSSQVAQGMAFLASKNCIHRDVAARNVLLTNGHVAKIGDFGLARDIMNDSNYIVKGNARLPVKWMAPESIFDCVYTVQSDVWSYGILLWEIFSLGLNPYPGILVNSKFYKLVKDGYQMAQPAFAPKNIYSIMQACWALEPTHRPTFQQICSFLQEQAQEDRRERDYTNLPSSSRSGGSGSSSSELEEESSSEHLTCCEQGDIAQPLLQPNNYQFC
FGFR3, sequence (P22607 whole entry): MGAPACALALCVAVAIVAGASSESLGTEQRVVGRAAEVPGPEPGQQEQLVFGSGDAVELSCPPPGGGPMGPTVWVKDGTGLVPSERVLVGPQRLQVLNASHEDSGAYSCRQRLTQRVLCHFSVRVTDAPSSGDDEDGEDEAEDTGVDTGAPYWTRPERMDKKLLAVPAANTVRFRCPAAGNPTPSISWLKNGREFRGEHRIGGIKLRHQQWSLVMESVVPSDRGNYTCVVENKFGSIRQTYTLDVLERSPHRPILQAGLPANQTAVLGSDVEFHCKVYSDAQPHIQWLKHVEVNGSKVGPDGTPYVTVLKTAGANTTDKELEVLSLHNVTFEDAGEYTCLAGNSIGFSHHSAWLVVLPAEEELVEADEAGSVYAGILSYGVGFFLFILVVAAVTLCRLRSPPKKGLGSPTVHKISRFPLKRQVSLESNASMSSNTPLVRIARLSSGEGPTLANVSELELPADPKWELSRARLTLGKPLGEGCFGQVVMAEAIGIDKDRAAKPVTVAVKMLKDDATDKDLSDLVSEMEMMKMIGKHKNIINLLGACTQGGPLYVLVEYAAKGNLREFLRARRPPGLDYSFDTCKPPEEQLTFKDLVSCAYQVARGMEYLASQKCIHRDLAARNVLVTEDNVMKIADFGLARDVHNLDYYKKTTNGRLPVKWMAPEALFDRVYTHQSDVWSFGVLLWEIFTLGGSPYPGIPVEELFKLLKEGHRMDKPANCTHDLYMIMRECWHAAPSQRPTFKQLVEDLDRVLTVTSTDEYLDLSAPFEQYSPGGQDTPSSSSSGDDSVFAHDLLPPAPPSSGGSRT
SNRK, sequence (Q9NRH2 whole entry): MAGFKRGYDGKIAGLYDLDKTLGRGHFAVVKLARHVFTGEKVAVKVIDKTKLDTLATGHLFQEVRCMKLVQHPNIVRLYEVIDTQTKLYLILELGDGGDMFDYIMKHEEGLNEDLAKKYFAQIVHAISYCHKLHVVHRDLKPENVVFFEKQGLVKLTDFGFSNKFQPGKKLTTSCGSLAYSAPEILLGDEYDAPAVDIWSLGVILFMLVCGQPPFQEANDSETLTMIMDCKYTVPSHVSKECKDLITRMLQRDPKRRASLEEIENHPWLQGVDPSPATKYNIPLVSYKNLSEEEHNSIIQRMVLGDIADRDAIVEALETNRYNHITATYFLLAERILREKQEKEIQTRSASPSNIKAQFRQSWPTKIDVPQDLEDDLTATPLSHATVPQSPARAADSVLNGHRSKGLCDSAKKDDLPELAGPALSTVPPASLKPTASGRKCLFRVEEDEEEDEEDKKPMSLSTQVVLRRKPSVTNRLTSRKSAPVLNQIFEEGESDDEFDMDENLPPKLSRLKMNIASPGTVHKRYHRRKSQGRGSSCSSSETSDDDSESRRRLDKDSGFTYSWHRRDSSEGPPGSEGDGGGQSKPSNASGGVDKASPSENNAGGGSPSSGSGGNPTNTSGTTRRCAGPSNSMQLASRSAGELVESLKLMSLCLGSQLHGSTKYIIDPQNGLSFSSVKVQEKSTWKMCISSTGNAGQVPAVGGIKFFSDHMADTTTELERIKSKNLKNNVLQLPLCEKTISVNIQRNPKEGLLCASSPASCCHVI
MET(Y1235D), sequence (P08581 whole entry Y1235D): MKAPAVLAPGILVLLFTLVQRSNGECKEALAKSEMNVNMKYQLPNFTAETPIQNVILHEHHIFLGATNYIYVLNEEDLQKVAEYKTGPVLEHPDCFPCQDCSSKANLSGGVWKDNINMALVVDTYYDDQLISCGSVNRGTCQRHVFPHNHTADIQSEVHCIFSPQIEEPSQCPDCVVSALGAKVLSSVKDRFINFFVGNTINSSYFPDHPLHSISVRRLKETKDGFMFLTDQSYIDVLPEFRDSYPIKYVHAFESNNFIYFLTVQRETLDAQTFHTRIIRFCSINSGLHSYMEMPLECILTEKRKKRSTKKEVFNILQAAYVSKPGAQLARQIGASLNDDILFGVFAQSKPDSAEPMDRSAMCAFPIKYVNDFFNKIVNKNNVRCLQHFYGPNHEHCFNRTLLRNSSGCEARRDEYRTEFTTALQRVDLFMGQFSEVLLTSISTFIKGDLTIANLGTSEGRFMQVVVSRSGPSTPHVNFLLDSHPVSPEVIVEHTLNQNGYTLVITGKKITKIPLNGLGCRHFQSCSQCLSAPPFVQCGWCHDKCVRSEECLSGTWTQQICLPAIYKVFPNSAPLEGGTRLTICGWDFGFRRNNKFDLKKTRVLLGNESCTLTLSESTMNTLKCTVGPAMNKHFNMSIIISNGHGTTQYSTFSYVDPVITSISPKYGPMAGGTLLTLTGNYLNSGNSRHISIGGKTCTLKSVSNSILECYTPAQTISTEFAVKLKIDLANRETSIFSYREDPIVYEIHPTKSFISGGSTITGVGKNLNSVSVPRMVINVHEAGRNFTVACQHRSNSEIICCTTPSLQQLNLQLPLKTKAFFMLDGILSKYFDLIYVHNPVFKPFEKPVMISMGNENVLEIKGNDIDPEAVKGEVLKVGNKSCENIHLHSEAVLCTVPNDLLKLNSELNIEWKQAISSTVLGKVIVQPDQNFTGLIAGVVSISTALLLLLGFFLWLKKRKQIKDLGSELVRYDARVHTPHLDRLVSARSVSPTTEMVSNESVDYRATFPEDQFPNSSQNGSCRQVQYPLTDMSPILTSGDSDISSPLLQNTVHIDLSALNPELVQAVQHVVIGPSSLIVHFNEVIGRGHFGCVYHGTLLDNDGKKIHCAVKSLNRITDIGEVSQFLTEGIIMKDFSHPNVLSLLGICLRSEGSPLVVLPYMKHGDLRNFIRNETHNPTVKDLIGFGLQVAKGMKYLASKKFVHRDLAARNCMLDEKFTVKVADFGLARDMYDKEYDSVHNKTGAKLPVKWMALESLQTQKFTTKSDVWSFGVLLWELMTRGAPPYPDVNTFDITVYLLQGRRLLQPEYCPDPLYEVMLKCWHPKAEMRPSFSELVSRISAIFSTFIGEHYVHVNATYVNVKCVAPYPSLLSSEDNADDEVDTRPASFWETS

Consider `C[C@@H]1CC(=O)NN=C1c1ccc(NN=C(C#N)C#N)cc1` [levosimendan], for which the remaining binding at 100 µM on MET(Y1235D) is 57%; at SNRK, 100%; on AKT1, 56%; on IKK-beta, 74%; on LRRK2, 77%; on ERBB2, 100%. For the same compound, the remaining binding at 100 µM is 79% at MLK1; 53% in test [1]; 100% on PIK3CA(Q546K); 73% at CSNK2A2; 100% at LKB1; 71% at FGFR3. Also, the remaining binding at 100 µM came to 87% on MARK4; 65% on TRKC; 100% on CDKL2; 88% on CAMK2G; 0% on RIOK1 (setting [3]); 40% at CSF1R (setting [3]). Also, on PIP5K2B (setting [3]), the remaining binding at 100 µM worked out at 14%. Further, the remaining binding at 10 µM is 15% on RIOK1 (setting [2]), 78% at CSF1R (setting [2]) and 92% on PIP5K2B (setting [2]).
